Data as given in publication PMC5942357 (European Journal of Clinical Pharmacology, 2018).

Columns and labels:
[1] = Pulmonary function tests (DLCO, FEV1, FVC), change from baseline; type: in vivo, human
Experimental: Participants were under continuous medical supervision during each admission period (up to 48 h post-dose), and safety assessments were made at regular intervals throughout each period and until the end of follow-up. Assessment of safety was conducted by monitoring AEs, clinical laboratory tests (haematology, clinical chemistry and urinalysis), vital signs (including pulse oximetry), 12-lead ECGs, telemetry, physical examinations and pulmonary function tests (forced expiratory volume in 1 s [FEV1], FVC, diffusing capacity of the lung for carbon monoxide).

αvβ6 integrin = conditions: cited from earlier work
[2] = IPF patients treated; cited from earlier work
[3] = tested on: αvβ6 integrin-mediated TGFβ activation; conditions: in vitro experiments; cited from earlier work

Structure (SMILES): Cc1cc(C)n(-c2cccc([C@H](CC(=O)O)CN3CC[C@@H](CCc4ccc5c(n4)NCCC5)C3)c2)n1 [GSK3008348]
- DLCO, mean change from baseline to 24 h post dose ([1]; 1 mcg, N=6): -0.153 L
- FEV1, mean change from baseline to 24 h post dose ([1]; 1 mcg, N=6): -0.043 L
- FVC, mean change from baseline to 24 h post dose ([1]; 1 mcg, N=6): -0.06 L
- DLCO, mean change from baseline to 24 h post dose ([1]; 3 mcg, N=6): 0.938 L
- FEV1, mean change from baseline to 24 h post dose ([1]; 3 mcg, N=6): -0.007 L
- FVC, mean change from baseline to 24 h post dose ([1]; 3 mcg, N=6): 0.125 L
- DLCO, mean change from baseline to 24 h post dose ([1]; 10 mcg, N=6): 0.113 L
- FEV1, mean change from baseline to 24 h post dose ([1]; 10 mcg, N=6): -0.053 L
- FVC, mean change from baseline to 24 h post dose ([1]; 10 mcg, N=6): -0.105 L
- DLCO, mean change from baseline to 24 h post dose ([1]; 30 mcg, N=6): -0.168 L
- FEV1, mean change from baseline to 24 h post dose ([1]; 30 mcg, N=6): 0.085 L
- FVC, mean change from baseline to 24 h post dose ([1]; 30 mcg, N=6): 0.033 L
- DLCO, mean change from baseline to 24 h post dose ([1]; 100 mcg, N=6): -0.862 L
- FEV1, mean change from baseline to 24 h post dose ([1]; 100 mcg, N=6): 0.023 L
- FVC, mean change from baseline to 24 h post dose ([1]; 100 mcg, N=6): 0.12 L
- DLCO, mean change from baseline to 24 h post dose ([1]; 300 mcg, N=6): 0.562 L
- FEV1, mean change from baseline to 24 h post dose ([1]; 300 mcg, N=6): -0.072 L
- FVC, mean change from baseline to 24 h post dose ([1]; 300 mcg, N=6): -0.078 L
- DLCO, mean change from baseline to 24 h post dose ([1]; 1000 mcg, N=12): -0.293 L
- FEV1, mean change from baseline to 24 h post dose ([1]; 1000 mcg, N=12): -0.027 L
- FVC, mean change from baseline to 24 h post dose ([1]; 1000 mcg, N=12): -0.014 L
- DLCO, mean change from baseline to 24 h post dose ([1]; 3000 mcg, N=11): 0.547 L
- FEV1, mean change from baseline to 24 h post dose ([1]; 3000 mcg, N=11): -0.025 L
- FVC, mean change from baseline to 24 h post dose ([1]; 3000 mcg, N=11): -0.094 L
- Individual change from baseline in FEV1 and FVC over time between treatment groups ([1]; all dose levels): did not show clinically significant differences
- Binding affinity for the αvβ6 integrin (αvβ6 integrin): high affinity

Structure (SMILES): COC(=O)c1ccc2c(c1)NC(=O)/C2=C(\Nc1ccc(N(C)C(=O)CN2CCN(C)CC2)cc1)c1ccccc1 [nintedanib]
- Discontinuation due to adverse events (AEs), patients [2]: ~20%
- Effects on αvβ6 integrin-mediated TGFβ activation [3]: limited effects

Structure (SMILES): Cc1ccc(=O)n(-c2ccccc2)c1 [pirfenidone]
- Discontinuation due to adverse events (AEs), patients [2]: approximately 30%
- Effects on αvβ6 integrin-mediated TGFβ activation [3]: limited effects
